# Assay results from patent EP0891975A1 (priority 1996, dated 1997).
# Where two headings read alike, the source gives them in different places.
# Legend:
# [1] = tested on: Tomato Late Blight Fungus (Phytophthora infestans); format: in vivo; details: 250 ppm, 10 ml per pot foliar spray, tomato (Red Cherry), degree of disease vs untreated pot after 24 hours moist chamber and 4 days greenhouse
# [2] = tested on: Larvae of Nilaparvata lugens; test: Insecticidal effect on larvae of Nilaparvata lugens (spray on rice seedling in glass cylinder); format: in vivo; details: 120 h, read-out: Death Rate (%)
# Method: A rice seedling was setted in a glass cylinder (inner diameter: 3 cm; length: 17 cm), and five 4th instar larvae of Nilaparvata lugens were set free therein. The agricultural and horticultural pesticide of the present invention (an emulsifiable concentrate) was prepared in accordance with Formulation Example 3 and diluted with water, and 0.5 ml of the resulting emulsion was sprayed in the cylinder by means of a spray tower (manufactured by Mizuho Rika) (duplicates at 1 concentration). Five days after the treatment, the mortality and agony of the larvae were examined to obtain a death rate (%) taking an agonizing insect as a 1/2 dead insect. The results obtained are shown in Table 4 (the compound numbers in Table 4 correspond to those in Tables 1, 2 and 3).
# [3] = tested on: Larvae of Plutella xylostella; test: Insecticidal effect on larvae of Plutella xylostella (cabbage leaf disc dip); format: in vivo; details: foliar, 96 h, read-out: Death Rate (%)
# Method: The agricultural and horticultural pesticide of the present invention (a wettable powder) was obtained in accordance with Formulation Example 1 and diluted with water to prepare a suspension having a prescribed concentration. A disc (6 cm in diameter) cut out of a cabbage leaf was soaked in the suspension for 1 minute, air-dried, and placed in a plastic cup (inner diameter: 7 cm). Five 3-instar larvae of Plutella xylostella were put in the cup (duplicates at one concentration). Four days later, the death and agony of the larvae were examined to obtain a death rate (%) taking an agonizing insect as a 1/2 dead insect. The results obtained are shown in Table 5 (the compound numbers in Table 5 correspond to those in Tables 1, 2 and 3).
# [4] = Acute toxicity in mice in single oral administration; details: mouse, in vivo, 30 mg/kg, 30 mg-active ingredient/kg, five 6-week-old CD-1 male mice, 7 days after administration, read-out: Death Rate (%)
# Method: Acute toxicity (p.o.) in mice of compound Nos. 8, 10, 13, 22, 23, 38, 42, and 52 was examined as follows. For comparison, compounds (IV), (V) and (VI) disclosed in JP-A-2-62876 were tested similarly.
# Compound Nos. 8, 10, 22, 23, 38, and 42 (30 mg each) were each suspended in 10 ml of a 0.5% CMC-Na aqueous solution. Compound Nos. 13 and 52 and compounds (IV), (V) and (VI) (30 mg each) were each suspended in 10 ml of a 0.5% tragacanth gum aqueous solution. The suspension was orally given to a group each consisting of five 6-week-old CD-1 male mice (available from Charles River) at a dose of 10 ml-suspension per kg of the body weight. The number of dead mice was counted after 7 days from the administration to obtain a death rate.
# [5] = tested on: Rice Blast Fungus (Magnaporthe grisea); format: in vivo; details: 250 ppm, 10 ml/pot foliar spray, rice (Akinishiki), lesions per leaf counted vs untreated pot after 24 hours moist chamber and 7 days greenhouse
# [6] = 500 ppm, emulsifiable concentrate diluted with water, 4th instar larvae, five days after treatment, agonizing insect counted as 1/2 dead
# [7] = 500 ppm, wettable powder suspension, 3-instar larvae, four days later, agonizing insect counted as 1/2 dead
Structure (SMILES),Control Value (%) [1],mortality at 500 ppm [2],mortality at 500 ppm [3],mortality at 168 h [4],Control Value (%) [5],"mortality at 500 ppm [2, 6]","mortality at 500 ppm [3, 7]"
"Cc1nn(C)c(C(=O)NCc2ccc(Oc3cccc(C(F)(F)F)c3)nc2)c1C [Compound No. 10, N-[6-(3-Trifluoromethylphenoxy)-3-pyridylmethyl]-1,3,4-trimethyl-5-pyrazolecarboxamide]",100%,100%,100%,0%,89%,,
Cc1nn(C)c(C(=O)NCc2ccc(Oc3cccc(Cl)c3)nc2)c1C [compound 8],100%,,,0%,,100%,
CCc1nn(C)c(C(=O)NCc2ccc(Oc3cccc(C(F)(F)F)c3)nc2)c1Cl [compound 13],85%,,,0%,87%,100%,100%
Cc1nn(C)c(C(=O)NCc2ccc(Oc3ccc4ccccc4c3)nc2)c1Cl [compound 22],100%,,,0%,,,
Cc1nn(C)c(C(=O)NCc2ccc(Oc3ccc4ccccc4c3)nc2)c1Br [compound 23],,,,0%,,,
CCc1nn(C)c(C(=O)NCc2ccc(Oc3ccc4ccccc4c3)nc2)c1Cl [compound 38],,,,0%,100%,90%,90%
Cn1nc2c(c1C(=O)NCc1ccc(Oc3ccc4ccccc4c3)nc1)CCC2 [compound 42],100%,,,0%,,90%,100%
COc1c(C)nn(C)c1C(=O)N(Cc1ccc(Oc2ccc3ccccc3c2)nc1)C(C)=O [compound 52],100%,,,0%,,90%,
